One compound from patent US8741905B2, “Compounds and methods for treating autoimmune diseases” (The Broad Institute, Inc., priority 2010, dated 2014) can be followed below.

For one test, the system named is dissociated human islets. The test is described as follows: Cytokine-induced caspase-3/7 activity in dissociated human islets. It counts as cell-based. The note with it: six-day cytokine treatment, co-incubation. An excerpt: Without being bound by any theory the following postulated to relate the activity of the compounds of Formula I in autoimmune diseases. Human beta-cell apoptosis involves a complex set of signaling cascades initiated by IL-1β, IFN-γ, and TNF-α. IL-1β and TNF-α induce NF-κB expression, while downstream activation of gene expression is thought to occur through nitric oxide (NO) signaling, which both increases the endoplasmic reticulum stress-response pathway and decreases beta-cell function; this pathway works together with IFN-γ-induced STAT-1 signaling to effect beta-cell death. These effects of cytokines are beta cell-specific, and small-molecule suppressors should have little to no effect on other cell types in the pancreas. Small molecules that increase beta-cell survival in the presence of cytokines could be of potential clinical benefit to early-stage type 1 diabetic patients. A number of studies have described small molecules with protective effects in the presence of cytokines; most of these were discovered because of their nonspecific antioxidant or anti-inflammatory effects. […] Because of the use of dissociated islets and a whole-well readout of caspase activity, it cannot be certain that only beta cells are undergoing apoptosis; however, based on previous results in the literature, beta cells may constitute the majority of the apoptotic effect.

The next test deals with INS-1E cells. The test is described as follows: Glucose-stimulated insulin secretion in cytokine-treated INS-1E cells. The following applies: cytokines. It counts as cell-based, rat. As for the experimental part:
INS-1E cells were seeded in 96-well plates at 20,000 cells per well and incubated for 48 h in 100 μL of fresh RPMI containing 1% FBS and the cytokine cocktail, in the presence or absence of compounds. Cells were washed and incubated for 2 h in KRBH (135 mM NaCl, 3.6 mM KCl, 5 mM NaHCO3, 0.5 mM NaH2PO4, 0.5 mM MgCl2, 1.5 mM CaCl2, 10 mM HEPES, pH 7.4, 0.1% BSA) without glucose. Cells were subsequently incubated with KRBH containing 2 or 15 mM glucose for 1 h. The supernatant was taken for measurement of released insulin, and 100 μL of acidified ethanol was added to each well for extraction and measurement of cellular insulin content. Insulin was measured with a rat insulin ELISA kit (Alpco).

Turning to `C[C@@H]1CN([C@@H](C)CO)C(=O)c2cccc(NC(=O)Nc3cccc4ccccc34)c2O[C@H]1CN(C)S(=O)(=O)c1ccc2c(c1)OCCO2` [Compound 21A, N-(((2R,3R)-5-((S)-1-Hydroxypropan-2-yl)-3-methyl-10-(3-(naphthalen-1-yl)ureido)-6-oxo-3,4,5,6-tetrahydro-2H-benzo[b][1,5]oxazocin-2-yl)methyl)-N-methyl-2,3-dihydrobenzo-[b][1,4]dioxine-6-sulfonamide], in the test with dissociated human islets, the “cytokine-induced caspase-3/7 activity (induced by approximately 60%)” value is listed as “abolished”. Moreover, the “glucose-stimulated insulin secretion (GSIS)” value in the test on INS-1E cells is on record as “restored glucose-stimulated insulin secretion (GSIS), showing improved beta-cell function, to nearly normal levels”.
